These results are taken from BindingDB's records for patent US10723705 (Incyte, 2020).

The test deals with T1, Histone deacetylase 8 (Homo sapiens, UniProt Q9BY41).
T1 sequence (Q9BY41 whole entry): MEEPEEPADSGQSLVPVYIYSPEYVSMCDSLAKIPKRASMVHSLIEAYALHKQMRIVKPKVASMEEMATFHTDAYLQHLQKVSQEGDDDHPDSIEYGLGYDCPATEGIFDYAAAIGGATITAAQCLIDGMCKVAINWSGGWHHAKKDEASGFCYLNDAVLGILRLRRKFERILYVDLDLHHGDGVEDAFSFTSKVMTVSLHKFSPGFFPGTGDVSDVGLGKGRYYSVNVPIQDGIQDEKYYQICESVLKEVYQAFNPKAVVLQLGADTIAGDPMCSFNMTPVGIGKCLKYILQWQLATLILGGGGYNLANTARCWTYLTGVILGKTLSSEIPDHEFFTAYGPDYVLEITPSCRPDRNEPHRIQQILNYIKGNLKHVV
Description: Enzymatic Assay. As to the method:
HDAC-Glo I/II Assay Kit was purchased from Promega Corporation (Madison, Wis.), including the following components: HDAC-Glo I/II Buffer (25 mM Tris buffer, pH 8.0, supplemented with 137 mM: NaCl, 2.7 mM KCl, 1% v/v Triton X-100 and 1 mM: MgCl2), luminogenic substrates Boc-GAK(Ac)-aminoluciferin (HDAC-Glo I/II substrate), proprietary developer reagent (containing trypsin). Assay:The HDAC8 reaction was performed at room temperature in white 384-well polystyrene, flat-bottom microtiter plate (Greiner Bio-one, Monroe, N.C.) in a final volume of 20 μL. Test compounds were first diluted serially in DMSO and 100 nL were transferred to the plate wells by Echo 550 (Labcyte, Sunnyvale, Calif.) before the addition of other reaction components. The final concentration of DMSO in the assay was 0.5%. The HDAC-Glo I/II assay reagent was prepared by rehydration of lyophilized HDAC-Glo I/II substrate in 10 mL. HDAC-Glo I/II assay buffer followed with the addition of 10 μL of developer reagent. 10 uL of 3 nM HDAC8 in the HDAC-Glo I/II assay buffer were first dispensed into the microliter plate containing the compounds and incubated at room temperature for 30 min. The reactions were initiated with the addition of 10 uL HDAC-Glo I/II assay reagent with Multidrop.
Take `O=C(NO)C(Cc1ccccc1)N1C=CC2C=C(Cl)C=NC21` (stereo not drawn) [US10723705, No. I-0195]: the IC50 entry is “in the range around 0.375 µM”. As for `O=C(NO)C(Cc1ccccc1)N1N=CC2C(Cl)=NC=CC21` (stereo not drawn) [US10723705, No. I-0055], the half-maximal inhibitory concentration (IC50) entry was “in the range around 0.375 µM”. On to `O=C(NO)C(Cc1ccccc1)N1C=CC2C(Cl)=NC=CC21` (stereo not drawn) [US10723705, No. I-0196], for which the IC50 entry was “in the range around 0.375 µM”.
